Data taken from US5120744A, “Substituted (quinolin-2-yl-methoxy)phenylthioureas” (Bayer Aktiengesellschaft, priority 1989, dated 1992).

Tested on: lipoxygenase
Experiment: lipoxygenase inhibition: release of leukotriene B4 (LTB4) from polymorphonuclear rat leukocytes (PMN), reverse phase HPLC, after adding substances and Ca ionophore
Type: cell-based
Details: read-out: LO inhibition IC50
Method: As a measure of the lipoxygenase inhibition, the release of leukotriene B4 (LTB4) from polymorphonuclear rat leukocytes (PMN) was determined by means of reverse phase HPLC according to Borgeat, P. et al., Proc. Nat. Acad. Sci. 76, 2148-2152 (1979) after adding substances and Ca ionophore. The in vivo activity of the compounds was determined using the mouse ear inflammation model according to Young, J. M. et al., J. of Investigative Dermatology 82, 367-371, (1984).

Compound	IC50
O=C(NC(=S)Nc1ccc(OCc2ccc3ccccc3n2)cc1)c1ccc(Cl)cc1 [Example 6, N-(4-Chlorobenzoyl)-N'-4-(quinolin-2-yl-methoxy)-phenyl-thiourea]	360 nM
Cc1cc([N+](=O)[O-])c(Cl)cc1NC(=S)Nc1ccc(OCc2ccc3ccccc3n2)cc1 [Example 4, N-(2-Methyl-4-nitro-5-chlorophenyl)-N'-4-(quinolin-2-yl-methyloxy)phenyl-thiourea]	33 nM
N#CC1(NC(=S)Nc2ccc(OCc3ccc4ccccc4n3)cc2)CCCCC1 [Example 7, N-(1-Cyano-cyclohexyl)-N'-4-(quinolin-2-yl-methoxy)phenyl-thiourea]	240 nM

Further lines, results first:

IC50	Compound
290 nM	Cc1cc(Cl)ccc1NC(=S)Nc1ccc(OCc2ccc3ccccc3n2)cc1 [Example 8, N-(2-Methyl-4-chlorophenyl)-N'-4-(quinolin-2-yl-methoxy)phenyl-thiourea]
410 nM	Cc1cc(Cl)c(Cl)cc1NC(=S)Nc1ccc(OCc2ccc3ccccc3n2)cc1 [Example 5]
36 nM	Cc1cc([N+](=O)[O-])ccc1NC(=S)Nc1ccc(OCc2ccc3ccccc3n2)cc1 [Example 3, N-(2-Methyl-4-nitrophenyl)-N'-4-(quinolin-2-yl-methoxy)phenyl-thiourea]
